In general, IC50 refers to the point on the concentration scale where inhibition reaches its midpoint. By Kd is commonly meant the constant that tells how readily two partners part at equilibrium. Read a high Kd as weaker binding.

From patent US12187709B2 (Genentech, Inc., priority 2021, dated 2025) come the findings set out here.

The target of one experiment is Cbl-b (Homo sapiens (Human), UniProt Q13191). In words: Cbl-b LCK Ub TR-FRET assay (Cbl-b Lck HTRF). As to conditions: for IC50: Cbl-b LCK Ub TR-FRET, Example 121; for (fold-selectivity) Cbl-b and C-Cbl Selectivity: ratio C-cbl Lck HTRF IC50 / Cbl-b Lck HTRF IC50. Format: biochemical. Put shortly: (§1)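 Signal is read once the detection mix has stood 20 min at ambient temperature. Curves are anchored by DMSO as maximum and by omission of LCK as minimum.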

The target in the next experiment is c-Cbl (Homo sapiens (Human), UniProt P22681). In words: C-Cbl LCK Ub TR-FRET assay (C-cbl Lck HTRF). Format: biochemical. In outline: as §1
On the technique in general: TR-FRET usually uses a lanthanide donor and a delayed reading to cut background.

Experiment [1] has as its target Human Cbl-b (residues 40-426) (Homo sapiens (Human), UniProt Q13191). In words: Cbl-b SPR assay. As to conditions: for Fold of selectivity: C-cbl SPR Kd vs Cbl-b SPR Kd; for Kd: SPR, 20° C. The class given is binding. Put shortly:
(§2)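 Captured protein (1300-1500 RU for both isoforms) was probed in multi-cycle kinetics with 6 concentrations in 2-fold dilution, 60 s contact, 40 μl/min, dissociation 120-1200 s, double-referenced. Kinetic and affinity parameters came from a 1:1 binding fit. For slow off-rates, kd was set independently by a chaser-based method.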
In general terms: SPR reads the build-up and loss of mass on a sensor chip optically.

The target of another experiment is c-Cbl (residues 47-435) (Homo sapiens (Human), UniProt P22681). In words: c-Cbl SPR assay. As to conditions: 20° C. The class given is binding. Put shortly:
as §2

Structures are written as SMILES.

Chain of Cbl-b (Q13191 40-426): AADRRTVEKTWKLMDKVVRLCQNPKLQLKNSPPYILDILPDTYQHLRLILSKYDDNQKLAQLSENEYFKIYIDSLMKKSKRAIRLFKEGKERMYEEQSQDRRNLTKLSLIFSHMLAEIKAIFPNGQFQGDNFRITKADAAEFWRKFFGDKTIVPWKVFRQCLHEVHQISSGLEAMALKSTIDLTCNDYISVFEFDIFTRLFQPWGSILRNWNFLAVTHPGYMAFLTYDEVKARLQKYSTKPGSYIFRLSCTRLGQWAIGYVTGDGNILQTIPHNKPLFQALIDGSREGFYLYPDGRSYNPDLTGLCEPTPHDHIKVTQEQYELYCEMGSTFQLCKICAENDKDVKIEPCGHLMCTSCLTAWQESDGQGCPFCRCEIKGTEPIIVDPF
Chain of Human Cbl-b (residues 40-426) (Q13191 40-426): as above
Chain of c-Cbl (P22681 47-435): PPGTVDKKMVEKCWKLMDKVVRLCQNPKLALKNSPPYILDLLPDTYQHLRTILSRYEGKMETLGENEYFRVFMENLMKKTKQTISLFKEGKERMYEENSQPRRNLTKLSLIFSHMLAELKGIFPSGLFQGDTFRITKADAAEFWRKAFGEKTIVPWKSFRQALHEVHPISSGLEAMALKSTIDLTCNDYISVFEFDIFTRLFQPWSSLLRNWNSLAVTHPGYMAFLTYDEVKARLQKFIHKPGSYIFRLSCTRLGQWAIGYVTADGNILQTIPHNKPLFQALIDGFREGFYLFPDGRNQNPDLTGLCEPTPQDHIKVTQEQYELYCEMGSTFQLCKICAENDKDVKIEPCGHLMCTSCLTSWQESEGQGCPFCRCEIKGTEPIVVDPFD
Chain of c-Cbl (residues 47-435) (P22681 47-435): as above

As to `CO[C@H]1C[C@](c2cccc(N3Cc4c(cc(CNCC(C)(C)F)cc4C(F)(F)F)C3=O)c2)(c2nncn2C)C1` [Compound 483, 6-(((2-fluoro-2-methylpropyl)amino)methyl)-2-(3-((1r,3r)-3-methoxy-1-(4-methyl-4H-1,2,4-triazol-3-yl)cyclobutyl)phenyl)-4-(trifluoromethyl)isoindolin-1-one], on Cbl-b, the IC50 turned out to be 0.01 µM; the “(fold-selectivity) Cbl-b and C-Cbl Selectivity” value was found to be 5.8x. This molecule yielded a half-maximal inhibitory concentration (IC50) against c-Cbl of 0.058 µM. In addition, in experiment [1], the Fold of selectivity amounted to 18× and the Kd turned out to be 0.0046 µM. At c-Cbl (residues 47-435), this molecule registered a Kd of 0.084 µM.
With `CO[C@H]1C[C@](c2cccc(N3Cc4c(cc(CN[C@]5(C)C[C@H](O)C5)cc4C(F)(F)F)C3=O)c2)(c2nncn2C)C1` [Compound 484, 6-((((1s,3S)-3-hydroxy-1-methylcyclobutyl)amino)methyl)-2-(3-((1r,3R)-3-methoxy-1-(4-methyl-4H-1,2,4-triazol-3-yl)cyclobutyl)phenyl)-4-(trifluoromethyl)isoindolin-1-one], on Cbl-b, the IC50 is 0.026 µM; the “(fold-selectivity) Cbl-b and C-Cbl Selectivity” value was 10x. It took 0.26 µM to reach half-maximal inhibition on c-Cbl (IC50). In experiment [1], this molecule registered a Fold of selectivity of 13× and a Kd of 0.013 µM. Moreover, the dissociation constant Kd at c-Cbl (residues 47-435) came to 0.2 µM.
For `CO[C@H]1C[C@](c2cccc(N3Cc4c(cc(CNC56CC(C5)C6)cc4C(F)(F)F)C3=O)c2)(c2nncn2C)C1` [Compound 485, 6-((bicyclo[1.1.1]pentan-1-ylamino)methyl)-2-(3-((1r,3r)-3-methoxy-1-(4-methyl-4H-1,2,4-triazol-3-yl)cyclobutyl)phenyl)-4-(trifluoromethyl)isoindolin-1-one], on Cbl-b, the IC50 is 0.013 µM; the “(fold-selectivity) Cbl-b and C-Cbl Selectivity” value came out at 5.2x. On c-Cbl, this molecule came in with an IC50 of 0.067 µM. Besides, in experiment [1], the Fold of selectivity came to 14× and binding was put at a Kd of 0.0074 µM. Moreover, binding at c-Cbl (residues 47-435) was put at a Kd of 0.11 µM.
As to `CO[C@H]1C[C@](c2cccc(N3Cc4c(cc(CNCC5(F)CC5)cc4C(F)(F)F)C3=O)c2)(c2nncn2C)C1` [Compound 486, 6-((((1-fluorocyclopropyl)-methyl)amino)methyl)-2-(3-((1r,3r)-3-methoxy-1-(4-methyl-4H-1,2,4-triazol-3-yl)cyclobutyl)phenyl)-4-(trifluoromethyl)isoindolin-1-one], at Cbl-b, 0.018 µM corresponded to half-maximal inhibition (IC50); the “(fold-selectivity) Cbl-b and C-Cbl Selectivity” value was found to be 6.0x. Further, the half-inhibitory concentration (IC50) on c-Cbl is 0.11 µM. In experiment [1], this molecule displayed a Fold of selectivity of 11× and a Kd of 0.0082 µM. At c-Cbl (residues 47-435), this molecule returned a dissociation constant (Kd) of 0.098 µM.
As for `COCC1(NCc2cc3c(c(C(F)(F)F)c2)CN(c2cccc([C@]4(c5nncn5C)C[C@H](OC)C4)c2)C3=O)CC1` [Compound 487, 2-(3-((1r,3r)-3-methoxy-1-(4-methyl-4H-1,2,4-triazol-3-yl)cyclobutyl)phenyl)-6-(((1-(methoxymethyl)cyclopropyl)amino)methyl)-4-(trifluoromethyl)isoindolin-1-one], on Cbl-b, the IC50 turned out to be 0.019 µM; the “(fold-selectivity) Cbl-b and C-Cbl Selectivity” value is given as 7.4x. Moreover, inhibition against c-Cbl was half-maximal at 0.15 µM (IC50). In experiment [1], this molecule returned a Fold of selectivity of 41× and a dissociation constant Kd of 0.0049 µM. This molecule also came in with a Kd on c-Cbl (residues 47-435) of 0.21 µM.
Consider `CO[C@H]1C[C@](c2cccc(N3Cc4c(cc(CNC5CC(C)(C)C5)cc4C(F)(F)F)C3=O)c2)(c2nncn2C)C1` [Compound 488, 6-(((3,3-dimethylcyclobutyl)amino)methyl)-2-(3-((1r,3r)-3-methoxy-1-(4-methyl-4H-1,2,4-triazol-3-yl)cyclobutyl)phenyl)-4-(trifluoromethyl)isoindolin-1-one], for which the results for the 50% inhibitory concentration (IC50) against Cbl-b and against c-Cbl were 0.0058 µM and 0.014 µM, respectively. In addition, the “(fold-selectivity) Cbl-b and C-Cbl Selectivity” value at Cbl-b came to 2.4x. The molecule also came in with a Fold of selectivity in experiment [1] of 13×. The Kd in experiment [1] worked out at 0.001 µM; at c-Cbl (residues 47-435), 0.013 µM.
